According to ChEMBL document CHEMBL1136673, “Synthesis of low molecular weight compounds with complement inhibition activity” (Bioorg Med Chem Lett, 2003):

Key:
Assay type in all cases: functional, organism-based; call rule not given here
[1] = species: Ovis aries; test: The concentration effective to cause 50% hemolysis with sensitized sheep erythrocytes in the absence of complement
[2] = species: Ovis aries; test: The concentration required to inhibit complement mediated hemolysis of sensitized sheep RBC; not active
[3] = species: Ovis aries; test: The concentration required to inhibit complement mediated hemolysis of sensitized sheep RBC
[4] = species: Ovis aries; test: Concentration effective to cause 50% hemolysis with sensitized sheep erythrocytes in the absence of complement
[5] = species: Ovis aries; test: Concentration required to inhibit complement mediated hemolysis of sensitized sheep RBC

| Structure (SMILES) | EC50 [1] | IC50 [2] | IC50 [3] | EC50 [4] | IC50 [5] |
| --- | --- | --- | --- | --- | --- |
| COc1cccc(C(=O)O)c1 | 2960 µM | Not Active | – | – | – |
| CCOc1cccc(C=O)c1 | – | – | 1000 µM | > 4000 µM | – |
| O=Cc1cccc(Oc2ccccc2)c1 | > 3.3 µM | – | 1390 µM | – | – |
| COc1cccc(C=O)c1 | > 4410 µM | – | – | – | 919 µM |
| CCOc1cccc(-c2nn[nH]n2)c1 | 2210 µM | – | 631 µM | – | – |
| COc1cccc(-c2nn[nH]n2)c1 | > 3410 µM | – | 1560 µM | – | – |
| CCOc1cccc(C(=O)O)c1 | 2530 µM | Not Active | – | – | – |
| c1ccc(Oc2cccc(-c3nn[nH]n3)c2)cc1 | 954 µM | – | 798 µM | – | – |
| O=C(O)c1cccc(Oc2ccccc2)c1 [M-PHENOXYBENZOIC ACID FOR CIS-ISOMER] | > 2800 µM | – | 1400 µM | – | – |
| CC1(C)CC[C@]2(C(=O)O)CC[C@]3(C)C(=CC[C@@H]4[C@@]5(C)CC[C@H](O)C(C)(C)[C@@H]5CC[C@]43C)[C@@H]2C1 [OLEANOLIC_ACID] | – | – | 76.6 µM | – | – |
| C[C@H]1[C@H](C)CC[C@]2(C(=O)O)CC[C@]3(C)C(=CC[C@@H]4[C@@]5(C)CC[C@H](O)C(C)(C)[C@@H]5CC[C@]43C)[C@H]12 [URSOLIC ACID] | – | – | 54.7 µM | – | – |
